Measurements from patent US20090233917A1, “Stroke recovery” (priority 2006, published 2009).

Test system: rat cortical neurons (mixed cortical cultures)
Test: Oxygen/glucose deprivation (OGD) of rat cortical neurons, cell death by LDH release
Format: cell-based, Wistar rat
Details: all concentrations (0.1-50 μM) except 0.2 μM; added one hour after onset of OGD
Procedure: Mixed cortical cultures were prepared from E18 Wistar rat embryos (National Animal Center, Kuopio, Finland). The cortices were dissected and the tissue cut into small pieces. The cells were separated by fifteen minute incubation with DNase and papain. The cells were collected by centrifugation (1500 rpm, 5 min). The tissue was triturated with a pipette and the cells were placed on poly-L-lysine coated 48-well plates, 300,000 cells/cm2, in MEM (2 g/L glucose) supplemented with 2 mM glutamine, 0.1 μg/mL gentamicin, 10% heat-inactivated fetal bovine serum (FSB-HI) and 10% heat-inactivated horse serum (HS-HI). After 3-4 hours, the medium was changed to MEM (2 g/L glucose) and supplemented with 2 mM glutamine, 0.1 μg/mL gentamicin, 5% HS-HI. After three days in vitro, cells were transferred into medium containing MEM (2 g/L glucose) supplemented with glutamine, gentamicin and 5% each of FSB-HI and HS-HI sera. On day 6 in vitro, unwanted cell division was inhibited by adding cytosine arabinoside (10 μM final concentration) for 24 hours. […]
After 24 hours, possible cell debris was removed by centrifugation (13,000 rpm, 3 min.). […] The absorbance at 340 nm was measured immediately using a 3 min. kinetic measurement protocol in Multiskan ELISA reader (Labsystems, Finland). The change in absorbance/min was determined, which is directly proportional to the released LDH (=cell death).

[O-][n+]1cccc(/C(Cl)=N/OC[C@H](O)CN2CCCCC2)c1 [arimoclomol, N-[2-hydroxy-3-(1-piperidinyl)propoxy]-pyridine-1-oxide-3-carboximidoyl chloride]
cytoprotection against OGD as measured by LDH release: cytoprotective
